According to ChEMBL document CHEMBL1201862, “PubChem BioAssay data set” (2004):
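Compound exposure: 48 hours, 5 concentrations, 96-well plates. GI50 = concentration required for 50% inhibition of growth.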 The source made the active and inactive calls. Rule as the data show it: active = GI50 up to about 1.1 µM and inactive = higher.

Experiments:
Assay in all cases: growth of human tumour cells (NCI), 48 h
OVCAR-3 = test system: OVCAR-3
SN12C = test system: SN12C
SNB-75 = test system: SNB-75
SK-MEL-2 = test system: SK-MEL-2
MDA-MB-435 = test system: MDA-MB-435
M14 = test system: M14
SW-620 = test system: SW-620
A498 = test system: A498
COLO 205 = test system: COLO 205
K562 = test system: K562
BT-549 = test system: BT-549
OVCAR-5 = test system: OVCAR-5
T47D = test system: T47D
MDA-N = test system: MDA-N
NCI-H522 = test system: NCI-H522
NCI-H460 = test system: NCI-H460
HOP-62 = test system: HOP-62
U-251 = test system: U-251
IGROV-1 = test system: IGROV-1
RPMI-8226 = test system: RPMI-8226

Measured: GI50

Cc1[nH]n(-c2ccccc2)c(=O)c1C(N(CCc1ccccc1)C1=NCC(C)S1)(C(F)(F)F)C(F)(F)F (centres undefined)
inactive: OVCAR-3 8.77 µM | SN12C 17.8 µM | SNB-75 16.5 µM | SK-MEL-2 8.51 µM | MDA-MB-435 10.2 µM | M14 11.6 µM | SW-620 18.1 µM | A498 11.9 µM | COLO 205 6.27 µM | K562 15.2 µM | BT-549 10.4 µM | OVCAR-5 8.65 µM | T47D 5.19 µM | MDA-N 8.63 µM | NCI-H522 4.35 µM | NCI-H460 13.9 µM | HOP-62 24.3 µM | U-251 7.41 µM

O=C1NC(NCc2ccc(F)cc2)=N/C1=C\c1ccccc1Cl
inactive: OVCAR-3 16.5 µM | SN12C 14.8 µM | SNB-75 7.4 µM | SK-MEL-2 15.8 µM | MDA-MB-435 17.9 µM | M14 15.6 µM | SW-620 13.5 µM | A498 16.8 µM | COLO 205 17.4 µM | K562 11.9 µM | BT-549 23.7 µM | OVCAR-5 16.8 µM | T47D 5.41 µM | MDA-N 16.8 µM | NCI-H522 13.8 µM | NCI-H460 25 µM | IGROV-1 19.2 µM | HOP-62 19.1 µM | U-251 14.7 µM

CCOC(=O)C(=O)N/N=C1\C(=O)Nc2ccccc21
inactive: SN12C > 100 µM | SNB-75 > 100 µM | SK-MEL-2 > 100 µM | MDA-MB-435 > 100 µM | M14 > 100 µM | SW-620 > 100 µM | A498 > 100 µM | RPMI-8226 > 100 µM | COLO 205 > 100 µM | K562 > 100 µM | BT-549 > 100 µM | OVCAR-5 > 100 µM | T47D > 100 µM | MDA-N > 100 µM | NCI-H522 > 100 µM | NCI-H460 > 100 µM | IGROV-1 > 100 µM | HOP-62 > 100 µM | U-251 > 100 µM

c1cc2cc(c1)CN1CCNCCN(CCNCC1)Cc1cccc(c1)CN1CCNCCN(CCNCC1)C2
inactive: OVCAR-3 > 100 µM | SN12C > 100 µM | SNB-75 > 100 µM | SK-MEL-2 > 100 µM | MDA-MB-435 > 100 µM | M14 > 100 µM | SW-620 > 100 µM | A498 > 100 µM | RPMI-8226 > 100 µM | COLO 205 > 100 µM | K562 > 100 µM | BT-549 > 100 µM | OVCAR-5 > 100 µM | T47D > 100 µM | MDA-N > 100 µM | NCI-H460 > 100 µM | IGROV-1 > 100 µM | HOP-62 > 100 µM | U-251 > 100 µM

COC(=O)C1(Cc2ccc3c(c2)CCC3)Cc2ccc3c(c2C1O)CCC3 (centres undefined)
inactive: OVCAR-3 13.8 µM | SN12C 15 µM | SNB-75 32.2 µM | MDA-MB-435 13 µM | SW-620 14.5 µM | A498 11.7 µM | RPMI-8226 17 µM | COLO 205 12.9 µM | K562 > 100 µM | BT-549 14.9 µM | T47D 8.81 µM | MDA-N 15.4 µM | NCI-H522 10.9 µM | NCI-H460 21 µM | IGROV-1 > 10 µM | HOP-62 14.7 µM | U-251 15.8 µM

COc1cc(S(=O)(=O)Nc2nc(-c3ccc(N4C(=O)/C(=C/c5ccccc5[N+](=O)[O-])N=C4c4ccccc4)cc3)cs2)ccc1Cl
inactive: OVCAR-3 29.5 µM | SN12C > 100 µM | SNB-75 > 100 µM | SK-MEL-2 33.3 µM | MDA-MB-435 67.1 µM | M14 > 100 µM | SW-620 > 100 µM | A498 > 100 µM | COLO 205 > 100 µM | K562 61.5 µM | BT-549 20 µM | OVCAR-5 > 100 µM | T47D 55.5 µM | MDA-N > 100 µM | NCI-H522 48.3 µM | NCI-H460 > 100 µM | IGROV-1 41.6 µM | HOP-62 87.1 µM | U-251 46.6 µM

Cn1c(=O)n(-c2c3ccccc3c(Cl)c3ccccc23)n(C(C)(C)C)c1=O
inactive: OVCAR-3 > 100 µM | SN12C > 100 µM | SNB-75 12.1 µM | SK-MEL-2 > 100 µM | MDA-MB-435 > 100 µM | M14 > 100 µM | SW-620 > 100 µM | A498 > 100 µM | COLO 205 > 100 µM | K562 > 100 µM | BT-549 > 100 µM | OVCAR-5 > 100 µM | T47D > 100 µM | MDA-N > 100 µM | NCI-H522 > 100 µM | NCI-H460 > 100 µM | IGROV-1 > 100 µM | HOP-62 38.4 µM | U-251 > 100 µM

CC(C)=CCC[C@@H](C)C1=C(O)C(=O)C(C)=C(Nc2ccccc2)C1=O
inactive: OVCAR-3 9.2 µM | SN12C 23.9 µM | SNB-75 31.5 µM | SK-MEL-2 20.2 µM | MDA-MB-435 27.7 µM | M14 14.9 µM | SW-620 22.8 µM | A498 20 µM | RPMI-8226 43.2 µM | COLO 205 22.6 µM | K562 13.2 µM | BT-549 24.7 µM | OVCAR-5 52.4 µM | T47D 19.9 µM | MDA-N 28.4 µM | NCI-H460 13.3 µM | IGROV-1 17.8 µM | HOP-62 11.3 µM | U-251 12.5 µM
